Source: patent US9200047B2, “SSX-2 peptides presented by HLA class II molecules” (Ludwig Institute for Cancer Research, Ltd., priority 2003, dated 2015)

Experiments:
Format in all cases: cell-based, human
[1] = system: SSX-2 specific CD4^+ T cells (clone 2C3); assay: IFN-γ secretion (ELISA) by SSX-2 specific CD4+ T cell clone in response to extended or truncated peptides; settings: for peptide recognition relative to SEQ ID NO:1 (IFN-γ secretion): clone 2C3, EBV LAU 149 as APC, serial peptide dilutions, ELISA after 24 hrs
Protocol: FIG. 2 depicts determination of the minimal sequence optimally recognized by SSX-2 specific CD4^+ T cells. Synthetic peptides extended or truncated at the SSX-213-34 N- or C-terminus were used to determine the minimal length of the epitope recognized by SSX-2 specific CD4^+ T cells. Serial dilutions of each peptide were incubated with EBV LAU 149 and SSX-2 specific CD4^+ T cells. IFN-γ secretion was determined by ELISA in the culture supernatant after 24 hrs of culture. The peptides tested were: […] (SSX-213-34; SEQ ID NO:1); […] (SSX-213-36; SEQ ID NO:2); […] (SSX-213-32; SEQ ID NO:3); VGAQIPEKIQKAFDDIAK (SSX-213-30; SEQ ID NO:4); IPEKIQKAFDDIAKYFSK (SSX-217-34; SEQ ID NO:5); EKIQKAFDDIAKYFSK (SSX-219-34; SEQ ID NO:6); IQKAFDDIAKYFSK (SSX-221-34; SEQ ID NO:7) and […] (SSX-261-82; SEQ ID NO:30).
(§1) For intracellular cytokine secretion detection T cells were incubated with APC at a 1:1 T cells:APC ratio during 4-6 h in the absence or in the presence of peptides at the indicated dose. One hour after the beginning of the incubation Brefeldin A (20 μg/ml, Sigma Chemical Co., Steinheim, Germany) was added to inhibit cytokine secretion. At the end of the incubation period cells were stained with anti-CD4 mAb for 20 min at 4° C. and fixed. Cells were then permeabilized using saponine (Sigma, 0.1% in PBS 10% FCS) stained by incubation with mAb against IFN-γ or IL-2 (BD, Pharmingen) and analyzed by flow cytometry. Data analysis was performed using Cell Quest software. For detection of cytokine secretion in the culture supernatant T cells (10,000) were incubated with stimulating cells (15,000/well) in 96-well round-bottom plates in 200 μl/well of IMDM containing 10% human serum and 20 U/ml hrIL2. After 24 h incubation at 37° C., culture supernatants were collected and the content of IFN-γ determined by ELISA (BioSource Europe, Fleurus, Belgium). IFN-γ ELISPOT assay was performed as described previously (Ayyoub M. et al, 2002, J Immunol 32:2292-2299) using nitrocellulose-lined 96-well microplates (MAHA S45: Millipore, Bedford, Mass.) and an IFN-γ ELISPOT kit (DIACLONE, Besancon, France). Stimulator cells (5×10^4/well) were added together with the indicated number of T cells and peptide (2 μM) where indicated. Spots were counted using a stereomicroscope with a magnification of ×15.
To more precisely define the SSX-2-derived peptide optimally recognized by specific CD4^+ T cells from patient 672, we analyzed the relative capacity of peptide SEQ ID to NO:1 extended or truncated variants to stimulate IFN-γ secretion by specific clonal T cells (clone 2C3). […] Similar results were obtained using another CD4^+ T cell clone (not shown).

[2] = system: CD4^+ T cells; assay: Intracellular IFN-γ / IL-2 staining of peptide-stimulated CD4+ T cell cultures from melanoma patients; settings: culture from patient 672; not shown
Protocol: FIGS. 1A and 1B show detection of SSX-2 specific CD4^+ T cells in peptide stimulated cultures. The presence of specific CD4^+ T cells in the culture from patient 672 was assessed by intracellular staining with anti-IFN-γ (FIG. 1A, left panels) or anti-IL-2 antibodies (FIG. 1A, right panels) after stimulation with autologous PBMC alone (upper panels) or with the peptide submixture P1-3 (containing SSX-2 peptides 1-22, 13-34, 25-46). Numbers in upper right quadrants are percent of cytokine producing cells among CD4^+ T cells.
In vitro sensitization of CD4^+ T cells was carried out as described previously for CD8^+ T cells. […]
(§2) For intracellular cytokine secretion detection T cells were incubated with APC at a 1:1 T cells:APC ratio during 4-6 h in the absence or in the presence of peptides at the indicated dose. […] Cells were then permeabilized using saponine (Sigma, 0.1% in PBS 10% FCS) stained by incubation with mAb against IFN-γ or IL-2 (BD, Pharmingen) and analyzed by flow cytometry. […] After 24 h incubation at 37° C., culture supernatants were collected and the content of IFN-γ determined by ELISA (BioSource Europe, Fleurus, Belgium). […] Spots were counted using a stereomicroscope with a magnification of ×15. […]

[3] = system: SSX-2 specific CD4^+ T cells; assay: Presentation of peptide SSX-2 13-34 by APC bearing different HLA-DP alleles (intracellular IFN-γ secretion); settings: healthy donors (Caucasian); not shown
Protocol: FIG. 3A: Intracellular IFN-γ secretion by SSX-2 specific CD4+ T cells (clone 3C8) upon stimulation with peptide SSX-213-34 was assessed both in the absence and in the presence of anti HLA-DR, -DP or -DQ antibodies. FIG. 3B: The ability of APC bearing different HLA-DP alleles to present peptide SSX-2 13-34 to specific CD4^+ T cells was assessed by intracellular IFN-γ secretion.
Molecular typing of HLA-DP molecules, construction of plasmids and transient transfection. […]
as §2

[4] = system: SSX-2 specific CD4^+ T cells; assay: Presentation of exogenously added peptide by melanoma cell lines to specific CD4+ T cell clones (ELISPOT); settings: two lines, Me 260 and T465A
Protocol: FIGS. 4A and 4B show the lack of tumor recognition by SSX-2 13-34 specific CD4^+ T cells. FIG. 4A: Recognition of Me 260 cells by CD4+ T cells was tested by ELISPOT in the absence or in the presence of exogeneously added peptide SSX-213-34. Where indicated, cells were treated with IFN-γ during 48 hr. FIG. 4B: Recognition of T465A was assessed as in […] as well as upon transfection with an SSX-2 encoding plasmid. The CD8+ T cell clone B3.4 specific for peptide SSX-2 41-49 was used as an internal control.
For intracellular cytokine secretion detection T cells were incubated with APC at a 1:1 T cells:APC ratio during 4-6 h in the absence or in the presence of peptides at the indicated dose. One hour after the beginning of the incubation Brefeldin A (20 μg/ml, Sigma Chemical Co., Steinheim, Germany) was added to inhibit cytokine secretion. At the end of the incubation period cells were stained with anti-CD4 mAb for 20 min at 4° C. and fixed. Cells were then permeabilized using saponine (Sigma, 0.1% in PBS 10% FCS) stained by incubation with mAb against IFN-γ or IL-2 (BD, Pharmingen) and analyzed by flow cytometry. Data analysis was performed using Cell Quest software. […] After 24 h incubation at 37° C., culture supernatants were collected and the content of IFN-γ determined by ELISA (BioSource Europe, Fleurus, Belgium). […] Spots were counted using a stereomicroscope with a magnification of ×15. […]

[5] = system: SSX-2 13-34 specific CD4^+ T cell clone 3C8; assay: Processing of soluble recombinant protein by professional APC and presentation to specific CD4+ T cells (ELISPOT)
Protocol: FIG. 5A: The ability of EBV LAU 149 to process the SSX-2 protein and present the relevant epitope to specific CD4+ T cells was assessed by ELISPOT after 12 hrs incubation with soluble recombinant SSX-2 protein followed by washing. NY-ESO-1 protein was used as an internal control. FIGS. 5B and 5C: Processing and presentation of the SSX-2 CD4^+ T cell epitope by LAU 672 autologous monocyte-derived DC was assessed as in FIG. 5A.
as §1
We then assessed the ability of professional APC to process the SSX-2 antigen and present the SSX-2 13-34 epitope to specific CD4^+ T cells.

[6] = system: clonal CD8^+ T cells (clone B3.4); assay: Processing of exogenous SSX-2 protein by professional APC and recognition by SSX-2 41-49 specific CD8+ T cells; settings: EBV and DC as APC

Molecule: IQKAFDDIAKYFSK (listed as Homo sapiens) [SEQ ID NO:7]
- reduction of peptide activity ([1]; relative to SEQ ID NO:1, clone 2C3, IFN-γ ELISA): 10 fold

Molecule: VGAQIPEKIQKAFDDIAKYFSK (listed as Homo sapiens) [SEQ ID NO:1]
- reactivity of the culture to single peptides in the submixture P1-3 [2]: active peptide
- PBMC from healthy donors able to present the epitope to CD4^+ T cells [3]: 3 out of 14
- presentation of peptide by melanoma cell lines to specific T cell clones [4]: efficiently presented

Molecule: EKIQKAFDDIAKYFSK (listed as Homo sapiens) [SEQ ID NO:6]
- peptide recognition relative to SEQ ID NO:1 (IFN-γ secretion) [1]: did not significantly affect recognition
- epitope mapping: minimal peptide among analyzed peptides ([1]; clone 2C3, similar results with another CD4+ T cell clone): minimal peptide optimally recognized

Molecule: IPEKIQKAFDDIAKYFSK (listed as Homo sapiens) [SEQ ID NO:5]
- peptide recognition relative to SEQ ID NO:1 (IFN-γ secretion) [1]: did not significantly affect recognition

B1: SSX-2 protein: soluble recombinant SSX-2 protein given to APC (protein, UniProt Q16385 1-188, looked up)
Protein SSX2: MNGDDAFARRPTVGAQIPEKIQKAFDDIAKYFSKEEWEKMKASEKIFYVYMKRKYEAMTKLGFKATLPPFMCNKRAEDFQGNDLDNDPNRGNQVERPQMTFGRLQGISPKIMPKKPAEEGNDSEEVPEASGPQNDGKELCPPGKPTTSEKIHERSGPKRGEHAWTHRLRERKQLVIYEEISDPEEDDE
- processing of protein and presentation of the epitope / stimulation of clone 3C8 ([5]; EBV LAU 149 as APC, 12 hrs incubation with soluble recombinant protein): efficiently process
- stimulation of clone 3C8 ([5]; EBV cells unable to present the peptide as APC): not significantly stimulated
- presentation of the epitope to specific CD4+ T cells ([5]; LAU 672 autologous dendritic cells (DC) as APC): Efficient presentation
- recognition of the CD8^+ T cell epitope SSX-2 41-49 after processing of exogenous protein [6]: did not result in recognition
